Data as given in patent US9738634B2, “Heterocyclic amide compound and herbicide” (SYNGENTA PARTICIPATIONS AG, priority 2013, dated 2017).

Legend:
Assay type in all cases: in vivo
Conditions in all cases: treatment dosage 315 g/ha
[1] = tested on: barnyard grass; assay: Test Example 1: weedkilling efficacy, preemergent weed treatment in the submerged state; A: barnyard grass
How it was run: (§1)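 Alluvial soil in Wagner pots flooded to 4 cm; barnyard grass, bulrush and oval-leafed pondweed seeds sown, then 2.5-leaf rice seedlings transplanted. Same day, emulsified compound diluted in water to set g/ha dosages and applied to water surface; greenhouse 25–30 °C, effect scored by criteria after 3 weeks.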

[2] = tested on: bulrush; assay: Test Example 1: weedkilling efficacy, preemergent weed treatment in the submerged state; B: bulrush
How it was run: as §1

[3] = tested on: oval-leafed pondweed; assay: Test Example 1: weedkilling efficacy, preemergent weed treatment in the submerged state; C: oval-leafed pondweed
How it was run: as §1

[4] = tested on: transplanted rice; assay: Test Example 1: preemergent weed treatment in the submerged state, effect on crop; a: transplanted rice
How it was run: as §1

[5] = tested on: barnyard grass; assay: Test Example 2: weedkilling efficacy, growth period weed treatment in the submerged state; A: barnyard grass
How it was run: (§2)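 First, alluvial soil in pots is flooded to 4 cm and mixed seed is sown. Next, plants grow in a greenhouse at 25 to 30° C until the 1-2 leaf stage. Then diluted emulsion is applied onto the water surface at the given g/ha rate, and injury is assessed after 3 weeks.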

[6] = tested on: bulrush; assay: Test Example 2: weedkilling efficacy, growth period weed treatment in the submerged state; B: bulrush
How it was run: as §2

[7] = tested on: oval-leafed pondweed; assay: Test Example 2: weedkilling efficacy, growth period weed treatment in the submerged state; C: oval-leafed pondweed
How it was run: as §2

[8] = tested on: crabgrass; assay: Test Example 3: weedkilling efficacy through soil treatment; D: crabgrass
How it was run: (§3)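 Crop and weed responses were judged three weeks after a uniform surface spray of the water-diluted emulsion at the given g/ha rate. Seeds sat beneath about 1.5 cm of sterilized diluvial soil, and boxes stood in a greenhouse at 25 to 30° C.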

[9] = tested on: green foxtail; assay: Test Example 3: weedkilling efficacy through soil treatment; E: green foxtail
How it was run: as §3

[10] = tested on: barnyard grass; assay: Test Example 3: weedkilling efficacy through soil treatment; F: barnyard grass
How it was run: as §3

[11] = tested on: wild oat; assay: Test Example 3: weedkilling efficacy through soil treatment; G: wild oat
How it was run: as §3

[12] = tested on: black-grass; assay: Test Example 3: weedkilling efficacy through soil treatment; H: black-grass
How it was run: as §3

[13] = tested on: Italian ryegrass; assay: Test Example 3: weedkilling efficacy through soil treatment; I: Italian ryegrass
How it was run: as §3

[14] = tested on: common wind-grass; assay: Test Example 3: weedkilling efficacy through soil treatment; J: common wind-grass
How it was run: as §3

[15] = tested on: Indian mallow; assay: Test Example 3: weedkilling efficacy through soil treatment; K: Indian mallow
How it was run: as §3

[16] = tested on: redroot pigweed; assay: Test Example 3: weedkilling efficacy through soil treatment; L: redroot pigweed
How it was run: as §3

[17] = tested on: chickweed; assay: Test Example 3: weedkilling efficacy through soil treatment; N: chickweed
How it was run: as §3

[18] = tested on: birds-eye speedwell; assay: Test Example 3: weedkilling efficacy through soil treatment; p: birds-eye speedwell
How it was run: as §3

[19] = tested on: directly sown rice; assay: Test Example 3: soil treatment, effect on crop; b: directly sown rice
How it was run: as §3

[20] = tested on: corn; assay: Test Example 3: soil treatment, effect on crop; c: corn
How it was run: as §3

[21] = tested on: soybean; assay: Test Example 3: soil treatment, effect on crop; d: soybean
How it was run: as §3

[22] = tested on: wheat; assay: Test Example 3: soil treatment, effect on crop; e: wheat
How it was run: as §3

[23] = tested on: beet; assay: Test Example 3: soil treatment, effect on crop; f: beet
How it was run: as §3

[24] = tested on: rapeseed; assay: Test Example 3: soil treatment, effect on crop; g: rapeseed
How it was run: as §3

[25] = tested on: crabgrass; assay: Test Example 4: weedkilling efficacy by foliar treatment; D: crabgrass
How it was run: (§4)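 Seeds are spot-sown into sterilized diluvial soil and covered with about 1.5 cm of soil. After 14 days' greenhouse growth at 25 to 30° C, plants are sprayed on stems and leaves with diluted emulsion at the stated g/ha rate, then scored at 3 weeks.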

[26] = tested on: green foxtail; assay: Test Example 4: weedkilling efficacy by foliar treatment; E: green foxtail
How it was run: as §4

[27] = tested on: barnyard grass; assay: Test Example 4: weedkilling efficacy by foliar treatment; F: barnyard grass
How it was run: as §4

[28] = tested on: wild oat; assay: Test Example 4: weedkilling efficacy by foliar treatment; G: wild oat
How it was run: as §4

[29] = tested on: black-grass; assay: Test Example 4: weedkilling efficacy by foliar treatment; H: black-grass
How it was run: as §4

[30] = tested on: Italian ryegrass; assay: Test Example 4: weedkilling efficacy by foliar treatment; I: Italian ryegrass
How it was run: as §4

[31] = tested on: common wind-grass; assay: Test Example 4: weedkilling efficacy by foliar treatment; J: common wind-grass
How it was run: as §4

[32] = tested on: Indian mallow; assay: Test Example 4: weedkilling efficacy by foliar treatment; K: Indian mallow
How it was run: as §4

[33] = tested on: redroot pigweed; assay: Test Example 4: weedkilling efficacy by foliar treatment; L: redroot pigweed
How it was run: as §4

[34] = tested on: chickweed; assay: Test Example 4: weedkilling efficacy by foliar treatment; N: chickweed
How it was run: as §4

[35] = tested on: catchweed; assay: Test Example 4: weedkilling efficacy by foliar treatment; O: catchweed
How it was run: as §4

[36] = tested on: birds-eye speedwell; assay: Test Example 4: weedkilling efficacy by foliar treatment; p: birds-eye speedwell
How it was run: as §4

[37] = tested on: directly sown rice; assay: Test Example 4: foliar treatment, effect on crop; b: directly sown rice
How it was run: as §4

[38] = tested on: corn; assay: Test Example 4: foliar treatment, effect on crop; c: corn
How it was run: as §4

[39] = tested on: soybean; assay: Test Example 4: foliar treatment, effect on crop; d: soybean
How it was run: as §4

[40] = tested on: wheat; assay: Test Example 4: foliar treatment, effect on crop; e: wheat
How it was run: as §4

[41] = tested on: beet; assay: Test Example 4: foliar treatment, effect on crop; f: beet
How it was run: as §4

[42] = tested on: rapeseed; assay: Test Example 4: foliar treatment, effect on crop; g: rapeseed
How it was run: as §4

In the case of `CC1=C(c2ccccc2)C(=O)N(C(C)(C)C(=O)Nc2cccc(C(F)F)n2)CO1` [B-2-55], the “A (barnyard grass) weedkilling efficacy grade” value [1] was 5 (weed kill ratio 90% or more, (practically complete withering)), the “B (bulrush) weedkilling efficacy grade” value [2] was 5 (weed kill ratio 90% or more, (practically complete withering)) and the “C (oval-leafed pondweed) weedkilling efficacy grade” value [3] was 5 (weed kill ratio 90% or more, (practically complete withering)). The “a (transplanted rice) effect on crop grade” value [4] was 3 (weed kill ratio 40% or more, less than 70%), the “A (barnyard grass) weedkilling efficacy grade” value [5] was 5 (weed kill ratio 90% or more, (practically complete withering)) and the “B (bulrush) weedkilling efficacy grade” value [6] was 5 (weed kill ratio 90% or more, (practically complete withering)). For the same compound, the “C (oval-leafed pondweed) weedkilling efficacy grade” value [7] was 5 (weed kill ratio 90% or more, (practically complete withering)), the “D (crabgrass) weedkilling efficacy grade” value [8] was 5 (weed kill ratio 90% or more, (practically complete withering)) and the “E (green foxtail) weedkilling efficacy grade” value [9] was 5 (weed kill ratio 90% or more, (practically complete withering)). For the same compound, the “F (barnyard grass) weedkilling efficacy grade” value [10] was 5 (weed kill ratio 90% or more, (practically complete withering)), the “G (wild oat) weedkilling efficacy grade” value [11] was 4 (weed kill ratio 70% or more, less than 90%) and the “H (black-grass) weedkilling efficacy grade” value [12] was 5 (weed kill ratio 90% or more, (practically complete withering)). The “I (Italian ryegrass) weedkilling efficacy grade” value [13] was 5 (weed kill ratio 90% or more, (practically complete withering)), the “J (common wind-grass) weedkilling efficacy grade” value [14] was 5 (weed kill ratio 90% or more, (practically complete withering)) and the “K (Indian mallow) weedkilling efficacy grade” value [15] was 1 (weed kill ratio 5% or more, less than 20%). For the same compound, the “L (redroot pigweed) weedkilling efficacy grade” value [16] was 4 (weed kill ratio 70% or more, less than 90%), the “N (chickweed) weedkilling efficacy grade” value [17] was 4 (weed kill ratio 70% or more, less than 90%) and the “P (birds-eye speedwell) weedkilling efficacy grade” value [18] was 5 (weed kill ratio 90% or more, (practically complete withering)). The “b (directly sown rice) effect on crop grade” value [19] was 4 (weed kill ratio 70% or more, less than 90%), the “c (corn) effect on crop grade” value [20] was 0 (weed kill ratio 5% or less (practically no effect)) and the “d (soybean) effect on crop grade” value [21] was 3 (weed kill ratio 40% or more, less than 70%). The “e (wheat) effect on crop grade” value [22] was 0 (weed kill ratio 5% or less (practically no effect)), the “f (beet) effect on crop grade” value [23] was 3 (weed kill ratio 40% or more, less than 70%) and the “g (rapeseed) effect on crop grade” value [24] was 2 (weed kill ratio 20% or more, less than 40%). For the same compound, the “D (crabgrass) weedkilling efficacy grade” value [25] was 5 (weed kill ratio 90% or more, (practically complete withering)), the “E (green foxtail) weedkilling efficacy grade” value [26] was 5 (weed kill ratio 90% or more, (practically complete withering)) and the “F (barnyard grass) weedkilling efficacy grade” value [27] was 5 (weed kill ratio 90% or more, (practically complete withering)). For the same compound, the “G (wild oat) weedkilling efficacy grade” value [28] was 3 (weed kill ratio 40% or more, less than 70%), the “H (black-grass) weedkilling efficacy grade” value [29] was 5 (weed kill ratio 90% or more, (practically complete withering)) and the “I (Italian ryegrass) weedkilling efficacy grade” value [30] was 4 (weed kill ratio 70% or more, less than 90%). For the same compound, the “J (common wind-grass) weedkilling efficacy grade” value [31] was 5 (weed kill ratio 90% or more, (practically complete withering)), the “K (Indian mallow) weedkilling efficacy grade” value [32] was 4 (weed kill ratio 70% or more, less than 90%) and the “L (redroot pigweed) weedkilling efficacy grade” value [33] was 4 (weed kill ratio 70% or more, less than 90%). For the same compound, the “N (chickweed) weedkilling efficacy grade” value [34] was 4 (weed kill ratio 70% or more, less than 90%), the “O (catchweed) weedkilling efficacy grade” value [35] was 5 (weed kill ratio 90% or more, (practically complete withering)) and the “P (birds-eye speedwell) weedkilling efficacy grade” value [36] was 5 (weed kill ratio 90% or more, (practically complete withering)). The “b (directly sown rice) effect on crop grade” value [37] was 5 (weed kill ratio 90% or more, (practically complete withering)), the “c (corn) effect on crop grade” value [38] was 4 (weed kill ratio 70% or more, less than 90%) and the “d (soybean) effect on crop grade” value [39] was 4 (weed kill ratio 70% or more, less than 90%). For the same compound, the “e (wheat) effect on crop grade” value [40] was 2 (weed kill ratio 20% or more, less than 40%), the “f (beet) effect on crop grade” value [41] was 4 (weed kill ratio 70% or more, less than 90%) and the “g (rapeseed) effect on crop grade” value [42] was 4 (weed kill ratio 70% or more, less than 90%).
